The target in this assay is T1, hCNNM4BAT (CNNM4BAT) (Homo sapiens, UniProt Q6P4Q7).
T1 construct: gene CNNM4; Bateman module (CBS1-CBS2) with helix H0; for NMR U-15N, N-terminal His6-V5-TEV site tag (pET151-D/TOPO), tag cleavage not described; E. coli BL21 CodonPlus; homodimer (CBS module)
The assay can be described thus: 2D […]-HSQC NMR titration; 1H STD NMR. The format is binding. As to conditions: estimated; no Mg2+ added; 100 mM HEPES, pH 7.4 preset (7.2 in results), 100 mM NaCl, 298 K; 100 uM protein.

T1 sequence (Q6P4Q7 359-511): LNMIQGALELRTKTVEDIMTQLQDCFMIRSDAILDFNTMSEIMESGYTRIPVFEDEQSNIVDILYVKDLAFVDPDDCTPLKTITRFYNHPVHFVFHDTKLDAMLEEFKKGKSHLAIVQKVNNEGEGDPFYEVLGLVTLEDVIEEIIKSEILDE

As for `Nc1ncnc2c1ncn2[C@@H]1O[C@H](COP(=O)(O)OP(=O)(O)NP(=O)(O)O)[C@@H](O)[C@H]1O` [ADPNP], the KD is reported as ~ 10^−2 to 10^−3 M.
